Data set [1] in a line: Inhibition of PI3Kdelta/AKT pathway in M-CSF stimulated human THP-1 cells assessed as decrease in AKT phosphorylation preincubated for 60 mins followed by M-CSF stimulation and measured after 10 mins by HTRF analysis. The conditions noted are these: THP-1, read-out: pIC50 (converted).
A short description of data set [2]: Metabolic stability in rat hepatocytes assessed as clearance measured per 10^6 cells at 0.5 uM incubated for 180 mins. The conditions noted are these: read-out: CLH. The data set is classed as ADME, cell-based, Hepatocyte.
A short description of data set [3]: Apparent permeability across basolateral side to apical side in human Caco-2 cells by […] assay. It counts as ADME, cell-based.
The nature of data set [4]: Protein binding in rat lung by rapidfire high-throughput MS analysis. The data set is classed as ADME, tissue-based. The conditions noted are these: read-out: PB (converted).
Data set [5] is described as follows: Metabolic stability in rat lung S9 fraction assessed as half life measured upto 120 mins in presence of NADPH by LC-MS/MS analysis. It counts as ADME, subcellular.
The nature of data set [6]: Microsomal stability in rat liver microsomes assessed as clearance at 0.5 uM incubated for 30 mins. It counts as ADME, Microsome. The conditions noted are these: read-out: CLH.
For data set [7], the target named is Phosphatidylinositol 4,5-bisphosphate 3-kinase catalytic subunit gamma isoform (Homo sapiens, UniProt P48736). Put plainly: Inhibition of recombinant human PI3Kgamma using l-a-phosphatidylinositol sodium salt and l-a-phosphatidyl-L-serine as substrate incubated for 60 mins in presence of ATP by ADP-glo kinase assay.
Data set [8] can be described thus: Metabolic stability in human hepatocytes assessed as clearance measured per 10^6 cells at 0.5 uM incubated for 180 mins. It counts as ADME, cell-based, Hepatocyte. The conditions noted are these: read-out: CLH.
The target of data set [9] is Phosphatidylinositol 4,5-bisphosphate 3-kinase catalytic subunit beta isoform (Homo sapiens, UniProt P42338). Put plainly: Inhibition of recombinant human PI3Kbeta using l-a-phosphatidylinositol sodium salt and l-a-phosphatidyl-L-serine as substrate incubated for 60 mins in presence of ATP by ADP-glo kinase assay.
A short description of data set [10]: Kinetic solubility of compound in PBS at pH 7.4 by HPLC analysis. The settings on record: for solubility kinetic: PBS, read-out: Kinetic_solubility; for Kinetic_solubility: buffer. The data set is classed as physicochemical.
Data set [11] has as its target Phosphatidylinositol 4,5-bisphosphate 3-kinase catalytic subunit alpha isoform (Homo sapiens, UniProt P42336). Put plainly: Inhibition of recombinant human PI3Kalpha using l-a-phosphatidylinositol sodium salt and l-a-phosphatidyl-L-serine as substrate incubated for 60 mins in presence of ATP by ADP-glo kinase assay.
The nature of data set [12]: Protein binding in rat plasma by rapidfire high-throughput MS analysis. The settings on record: read-out: PPB (converted). It counts as ADME, cell-free.
Data set [13] can be described thus: Metabolic stability in human lung S9 fraction assessed as half life measured upto 120 mins in presence of NADPH by LC-MS/MS analysis. The data set is classed as ADME, subcellular.
In data set [14] the test system is HepG2. Put plainly: Cytotoxicity against human HepG2 cells assessed as reduction in cell viability at 3 to 30 uM incubated for 48 hrs by celltiter-glo assay. It counts as functional, cell-based. The conditions noted are these: dose 3-30 µM.
Data set [15] can be described thus: Protein binding in human plasma by rapidfire high-throughput MS analysis. The conditions noted are these: read-out: PPB (converted). The data set is classed as ADME, cell-free.
The target of data set [16] is T1, Phosphatidylinositol 4,5-bisphosphate 3-kinase catalytic subunit delta isoform (Homo sapiens, UniProt O00329).
T1 sequence (O00329 whole entry): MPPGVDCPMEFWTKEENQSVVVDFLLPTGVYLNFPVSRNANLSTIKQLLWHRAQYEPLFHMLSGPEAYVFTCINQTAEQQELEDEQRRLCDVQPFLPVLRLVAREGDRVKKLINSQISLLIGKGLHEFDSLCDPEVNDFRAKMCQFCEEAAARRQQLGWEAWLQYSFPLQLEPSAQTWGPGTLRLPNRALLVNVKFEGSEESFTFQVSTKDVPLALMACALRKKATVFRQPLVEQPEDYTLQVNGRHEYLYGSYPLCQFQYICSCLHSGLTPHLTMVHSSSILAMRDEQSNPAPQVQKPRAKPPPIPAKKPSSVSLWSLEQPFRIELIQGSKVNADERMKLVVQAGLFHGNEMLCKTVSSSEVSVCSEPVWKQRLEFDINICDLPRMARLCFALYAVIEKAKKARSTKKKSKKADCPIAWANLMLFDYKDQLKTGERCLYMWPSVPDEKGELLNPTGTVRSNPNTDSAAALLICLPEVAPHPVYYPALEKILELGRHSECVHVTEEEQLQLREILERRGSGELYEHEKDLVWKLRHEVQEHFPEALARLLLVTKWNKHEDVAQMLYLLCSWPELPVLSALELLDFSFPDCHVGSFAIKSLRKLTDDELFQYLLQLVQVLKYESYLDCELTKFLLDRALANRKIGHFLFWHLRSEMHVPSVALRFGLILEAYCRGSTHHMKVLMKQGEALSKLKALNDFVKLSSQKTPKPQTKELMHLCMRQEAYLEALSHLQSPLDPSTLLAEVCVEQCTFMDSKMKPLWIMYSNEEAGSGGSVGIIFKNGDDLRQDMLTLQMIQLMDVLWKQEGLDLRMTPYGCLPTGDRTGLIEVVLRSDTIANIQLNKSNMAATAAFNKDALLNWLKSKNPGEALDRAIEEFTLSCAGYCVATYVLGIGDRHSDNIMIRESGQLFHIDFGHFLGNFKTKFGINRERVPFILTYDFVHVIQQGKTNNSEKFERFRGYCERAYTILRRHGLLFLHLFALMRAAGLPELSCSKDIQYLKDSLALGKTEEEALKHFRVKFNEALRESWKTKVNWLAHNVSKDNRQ
The data set can be described thus: Inhibition of recombinant human PI3Kdelta using l-a-phosphatidylinositol sodium salt and l-a-phosphatidyl-L-serine as substrate incubated for 60 mins in presence of ATP by ADP-glo kinase assay.

A short description of data set [17]: Microsomal stability in human liver microsomes assessed as clearance at 0.5 uM incubated for 30 mins. The conditions noted are these: read-out: CLH. The data set is classed as ADME, Microsome.
Data set [18] deals with THP-1. The settings on record: Homo sapiens, time 70.0 min.
The subject of data set [19] is HepG2. Put plainly: Cytotoxicity against human HepG2 cells assessed as reduction in cell viability at 10 to 30 uM incubated for 48 hrs by celltiter-glo assay. It counts as functional, cell-based. The settings on record: dose 10-30 µM.

The record followed here is ChEMBL document CHEMBL5325439, “Application of an "inhalation by design" approach to the identification and in-vitro evaluation of novel purine based PI3Kδ inhibitors” (Eur J Med Chem, 2023).

SMILES strings stand for the structures. ≈ marks a conversion by molar mass, not a printed value. Calls of active or inactive are those of the source. The rule behind the calls is not given here.

Phosphatidylinositol 4,5-bisphosphate 3-kinase catalytic subunit beta isoform, sequence (P42338 whole entry, canonical isoform): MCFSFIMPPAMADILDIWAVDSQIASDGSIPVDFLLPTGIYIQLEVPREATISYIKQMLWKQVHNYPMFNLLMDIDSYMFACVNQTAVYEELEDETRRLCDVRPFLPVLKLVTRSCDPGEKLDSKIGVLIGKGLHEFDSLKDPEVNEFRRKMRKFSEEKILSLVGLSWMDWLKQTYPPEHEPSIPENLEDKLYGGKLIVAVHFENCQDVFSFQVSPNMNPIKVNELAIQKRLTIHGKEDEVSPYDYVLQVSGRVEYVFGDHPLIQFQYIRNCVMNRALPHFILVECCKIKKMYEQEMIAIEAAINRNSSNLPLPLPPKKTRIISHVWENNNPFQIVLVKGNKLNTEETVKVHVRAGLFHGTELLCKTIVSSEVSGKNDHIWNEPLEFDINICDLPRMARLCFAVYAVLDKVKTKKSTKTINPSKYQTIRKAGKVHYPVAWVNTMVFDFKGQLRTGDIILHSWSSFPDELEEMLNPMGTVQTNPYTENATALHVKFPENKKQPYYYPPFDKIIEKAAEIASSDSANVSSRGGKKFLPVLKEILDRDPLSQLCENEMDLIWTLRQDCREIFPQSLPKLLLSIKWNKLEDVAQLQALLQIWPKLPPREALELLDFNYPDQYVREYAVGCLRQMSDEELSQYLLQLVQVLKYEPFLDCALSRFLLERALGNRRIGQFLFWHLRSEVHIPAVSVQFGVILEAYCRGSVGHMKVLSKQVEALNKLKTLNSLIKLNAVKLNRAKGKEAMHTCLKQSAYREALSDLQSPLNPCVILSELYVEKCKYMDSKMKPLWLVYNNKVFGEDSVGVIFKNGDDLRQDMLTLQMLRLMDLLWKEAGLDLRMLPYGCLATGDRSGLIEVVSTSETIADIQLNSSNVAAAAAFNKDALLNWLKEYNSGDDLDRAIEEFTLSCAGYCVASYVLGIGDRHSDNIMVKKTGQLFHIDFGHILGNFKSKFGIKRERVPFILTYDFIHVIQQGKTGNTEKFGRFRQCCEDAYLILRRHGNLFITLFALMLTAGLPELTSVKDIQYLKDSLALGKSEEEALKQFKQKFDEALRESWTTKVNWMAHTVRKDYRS
Phosphatidylinositol 4,5-bisphosphate 3-kinase catalytic subunit gamma isoform, sequence (P48736 whole entry, canonical isoform): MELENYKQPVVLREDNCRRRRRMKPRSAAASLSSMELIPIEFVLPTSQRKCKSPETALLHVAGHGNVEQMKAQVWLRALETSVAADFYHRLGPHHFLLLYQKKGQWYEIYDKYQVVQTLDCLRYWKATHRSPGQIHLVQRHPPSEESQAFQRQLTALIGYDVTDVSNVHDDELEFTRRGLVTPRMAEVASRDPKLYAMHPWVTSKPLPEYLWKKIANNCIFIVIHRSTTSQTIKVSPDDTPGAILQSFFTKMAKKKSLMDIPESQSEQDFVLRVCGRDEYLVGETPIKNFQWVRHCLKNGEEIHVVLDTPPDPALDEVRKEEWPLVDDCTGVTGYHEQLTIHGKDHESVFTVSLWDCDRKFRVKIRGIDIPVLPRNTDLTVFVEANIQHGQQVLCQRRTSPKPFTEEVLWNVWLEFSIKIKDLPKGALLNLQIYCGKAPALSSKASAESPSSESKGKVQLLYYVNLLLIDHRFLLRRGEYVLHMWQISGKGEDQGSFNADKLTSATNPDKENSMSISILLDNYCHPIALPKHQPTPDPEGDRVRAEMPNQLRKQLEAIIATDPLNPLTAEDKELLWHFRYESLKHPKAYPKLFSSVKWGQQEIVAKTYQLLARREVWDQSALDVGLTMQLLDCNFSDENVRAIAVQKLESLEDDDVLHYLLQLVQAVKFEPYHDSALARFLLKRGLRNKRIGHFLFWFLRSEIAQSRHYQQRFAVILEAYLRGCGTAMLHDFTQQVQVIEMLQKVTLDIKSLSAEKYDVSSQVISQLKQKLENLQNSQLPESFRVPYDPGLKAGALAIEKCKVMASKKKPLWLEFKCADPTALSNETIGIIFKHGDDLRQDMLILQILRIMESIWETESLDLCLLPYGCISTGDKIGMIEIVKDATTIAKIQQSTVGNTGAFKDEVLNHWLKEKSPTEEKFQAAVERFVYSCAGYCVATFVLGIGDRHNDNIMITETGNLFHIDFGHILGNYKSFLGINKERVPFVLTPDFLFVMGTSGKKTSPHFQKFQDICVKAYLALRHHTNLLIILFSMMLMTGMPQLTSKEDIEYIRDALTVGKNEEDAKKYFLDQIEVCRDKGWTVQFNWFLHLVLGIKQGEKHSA
Phosphatidylinositol 4,5-bisphosphate 3-kinase catalytic subunit alpha isoform, sequence (P42336 whole entry, canonical isoform): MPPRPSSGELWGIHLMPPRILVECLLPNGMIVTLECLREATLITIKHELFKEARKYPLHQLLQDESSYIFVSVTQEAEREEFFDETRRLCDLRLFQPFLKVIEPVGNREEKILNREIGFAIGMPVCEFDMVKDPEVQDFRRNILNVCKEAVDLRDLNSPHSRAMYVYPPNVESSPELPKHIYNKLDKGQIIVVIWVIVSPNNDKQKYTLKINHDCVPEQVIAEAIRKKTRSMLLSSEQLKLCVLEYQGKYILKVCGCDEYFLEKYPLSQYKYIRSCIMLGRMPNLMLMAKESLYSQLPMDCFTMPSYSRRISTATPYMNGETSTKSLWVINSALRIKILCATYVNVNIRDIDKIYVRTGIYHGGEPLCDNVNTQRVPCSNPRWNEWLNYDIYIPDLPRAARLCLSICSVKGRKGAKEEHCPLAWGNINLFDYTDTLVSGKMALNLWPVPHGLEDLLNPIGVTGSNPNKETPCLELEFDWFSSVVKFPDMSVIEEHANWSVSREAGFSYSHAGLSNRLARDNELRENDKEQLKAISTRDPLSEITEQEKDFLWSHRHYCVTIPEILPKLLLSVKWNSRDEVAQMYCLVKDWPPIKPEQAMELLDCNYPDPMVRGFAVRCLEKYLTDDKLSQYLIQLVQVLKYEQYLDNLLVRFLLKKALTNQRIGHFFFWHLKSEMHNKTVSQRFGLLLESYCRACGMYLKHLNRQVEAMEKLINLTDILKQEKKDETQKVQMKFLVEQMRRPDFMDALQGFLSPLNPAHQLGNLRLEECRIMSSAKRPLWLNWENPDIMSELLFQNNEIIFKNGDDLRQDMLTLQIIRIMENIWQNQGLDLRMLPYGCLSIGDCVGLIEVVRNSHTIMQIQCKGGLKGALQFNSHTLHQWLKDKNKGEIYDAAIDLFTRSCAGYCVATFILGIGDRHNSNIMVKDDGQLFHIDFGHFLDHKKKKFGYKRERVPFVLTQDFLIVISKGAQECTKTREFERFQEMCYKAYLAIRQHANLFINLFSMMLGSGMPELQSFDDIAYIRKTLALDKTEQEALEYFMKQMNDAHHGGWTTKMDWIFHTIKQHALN

For the compound `NC(=O)c1nc(-c2cccc(O)c2)nc2c1[nH]c(=O)n2C1CCN(Cc2ccccc2)C1` (stereo not given), in data set [1], the IC50 is 316 nM. Moreover, the hepatocyte CLint at 0.5 µM in data set [2] is 163 µL/min/1e6 cells; in data set [8], 55 µL/min/1e6 cells. In addition, the Papp B→A in data set [3] was determined as 0.2 ×10⁻⁶ cm/s. In addition, the fraction unbound in data set [4] was 0.021; in [12] it was 0.033; in data set [15], 0.032. Further, the results for the half-life in data set [5] and in data set [13] were more than 8.33 h and 2.36 h, respectively. The microsomal CLint at 0.5 µM in data set [6] worked out at 133 µL/min/mg; in data set [17], 70 µL/min/mg. Further, the Ki in data set [7] is 316 nM; in data set [9], 20 nM; in data set [11], 126 nM; in data set [16], 5.01 nM. The solubility kinetic in data set [10] came to 178 µM (≈ 76.6 µg/mL). Besides, the outcome in data set [14] was inactive.
On to `NC(=O)c1nc(-c2cccc(O)c2)nc2c1[nH]c(=O)n2CCc1ccc(Cl)c(Cl)c1`, for which the solubility kinetic in [10] is 62 µM (≈ 27.5 µg/mL).
Same read-out and setting: as for `NC(=O)c1nc(-c2cccc(O)c2)nc2c1[nH]c(=O)n2CCc1cccs1`, the figure is 405 µM (≈ 154 µg/mL).
For `NC(=O)c1nc(-c2cccc(O)c2)nc2c1[nH]c(=O)n2C1CC1c1ccccc1` (stereo not given), the Ki was 158 nM in data set [7], 158 nM in data set [9], 158 nM in [11] and 63.1 nM in data set [16]. Also, the pIC50 result in [18] is “inactive”. Also, the Kinetic_solubility entry in data set [10] is recorded as “Not Active”.
For the compound `NC(=O)c1nc(-c2cccc(O)c2)nc2c1[nH]c(=O)n2-c1ccc(N2CCOCC2)cc1`, the Ki in data set [7] was 126 nM; in [9], 158 nM; in data set [11], 39.8 nM; in data set [16], 50.1 nM.
For the compound `NC(=O)c1nc(-c2cccc(O)c2)nc2c1[nH]c(=O)n2CCc1ccc2c(c1)OCO2`, the Kinetic_solubility entry in data set [10] is “Not Active”.
Regarding `NC(=O)c1nc(-c2cccc3[nH]ccc23)nc2c1[nH]c(=O)n2CCc1ccc(Cl)c(Cl)c1`, the Ki in data set [11] is not below 20000 nM.
For `Cc1ccc(O)cc1-c1nc(C(N)=O)c2[nH]c(=O)n(CCc3ccc(Cl)c(Cl)c3)c2n1`, in data set [10], the solubility kinetic worked out at 498 µM (≈ 228 µg/mL).
For `CC(C)c1ccc(CCn2c(=O)[nH]c3c(C(N)=O)nc(-c4cccc(O)c4)nc32)cc1`, the Kinetic_solubility entry in data set [10] was “Not Active”.
Regarding `NC(=O)c1nc(-c2cccc(O)c2)nc2c1[nH]c(=O)n2CC1CCOC1` (stereo not given), the inhibition constant (Ki) in data set [7] is 251 nM; in data set [9], 316 nM; in data set [11], 39.8 nM; in [16], 39.8 nM.
Take `CC(Cc1ccc(Cl)c(Cl)c1)n1c(=O)[nH]c2c(C(N)=O)nc(-c3cccc(O)c3)nc21` (stereo not given): the IC50 in data set [1] is 100 nM. The values for the hepatocyte CLint at 0.5 µM in data set [2] and in data set [8] were 120 µL/min/1e6 cells and 79 µL/min/1e6 cells, respectively. Further, the fraction unbound in [4], in [12] and in data set [15] was less than 0.01 throughout. The half-life in data set [5] and in data set [13] was more than 8.33 h in each case. The microsomal CLint at 0.5 µM was 50 µL/min/mg in data set [6] and 19 µL/min/mg in data set [17]. For the same compound, the Ki is 398 nM in data set [7], 6.31 nM in data set [9], 200 nM in data set [11] and 3.16 nM in data set [16]. For the same compound, in [10], the solubility kinetic was 414 µM (≈ 190 µg/mL). Further, in [14], the outcome was inactive.
For the compound `CC[C@H](Nc1ncnc2[nH]cnc12)c1nc2cccc(F)c2c(=O)n1-c1ccccc1` [IDELALISIB], in [1], the IC50 is 31.6 nM. In addition, the Papp B→A in [3] was determined as 23.4 ×10⁻⁶ cm/s. Besides, the fraction unbound in data set [4] was 0.139; in data set [12] it was 0.148; in data set [15], 0.031. The outcome in data set [19] was Active.
Turning to `NC(=O)c1nc(-c2cccc(O)c2)nc2c1[nH]c(=O)n2CC1CCS(=O)(=O)C1` (stereo not given), the Ki is 1260 nM in data set [7], 631 nM in data set [9], 100 nM in data set [11] and more than 20000 nM in data set [16].
For `NC(=O)c1nc(-c2cccc3[nH]ncc23)nc2c1[nH]c(=O)n2CCc1ccc(Cl)c(Cl)c1`, the Ki is 1580 nM in data set [7] and 126 nM in [16].
Consider `NC(=O)c1nc(-c2cccc(O)c2)nc2c1[nH]c(=O)n2-c1ccc(F)cc1`, for which the Ki in [11] was 79.4 nM.
In the case of `CN(C)Cc1cccc(-c2nc(C(N)=O)c3[nH]c(=O)n(CCc4ccc(Cl)c(Cl)c4)c3n2)c1`, the Ki in [7], in data set [9], in data set [11] and in data set [16] was not below 20000 nM in each case.
